Target: T1, cloned human glucagon receptor (Homo sapiens, UniProt P47871)
T1 construct: expressed in transfected cells; host or cells: 293 HEK cells, hygromycin-selected; crude plasma membranes
Test: Glucagon Receptor (hGlucR) Binding Assay (SPA, I-125 glucagon competition)
Excerpt: The second supernate is combined with the first supernate.
The specific activity is 2200 Ci/mmol.

T1 sequence (P47871 26-477): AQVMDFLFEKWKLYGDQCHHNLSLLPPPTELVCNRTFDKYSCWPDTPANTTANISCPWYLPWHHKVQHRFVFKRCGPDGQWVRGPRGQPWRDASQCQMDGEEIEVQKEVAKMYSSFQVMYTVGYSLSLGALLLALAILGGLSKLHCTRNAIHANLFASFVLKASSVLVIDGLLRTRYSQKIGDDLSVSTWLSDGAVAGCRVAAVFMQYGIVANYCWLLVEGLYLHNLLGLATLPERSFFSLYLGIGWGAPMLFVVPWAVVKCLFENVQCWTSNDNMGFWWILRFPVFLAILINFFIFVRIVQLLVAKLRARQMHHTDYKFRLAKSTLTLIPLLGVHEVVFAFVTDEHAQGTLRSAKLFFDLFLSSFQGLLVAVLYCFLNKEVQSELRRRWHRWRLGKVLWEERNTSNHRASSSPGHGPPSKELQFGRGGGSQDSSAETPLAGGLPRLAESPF

SMILES: CC(C)CC(Cc1ccc(-c2ccc(C(C)(C)C)cc2)cc1)c1ccc(C(=O)NCCC(=O)O)cc1 (centres unmarked)
- Ki: 266 nM

SMILES: CCCCCCC(Cc1ccc(-c2ccc(C(F)(F)F)cc2)cc1)c1ccc(C(=O)NCCC(=O)O)cc1 (centres unmarked)
- Ki: 232 nM
